Patent US20020048572A1, “Treatment of hypertriglyceridemia and other conditions using LXR modulators” (priority 2000, published 2002)
“Also recorded” adds a separate entry of the source.

How the values were obtained:
HepG2 cells [1] = experiment: Northern blot analysis of T0314407-dosed HepG2 cells with and without cycloheximide; format: cell-based; conditions: HepG2, with 50 μg/mL cycloheximide, 18 h
Experimental: FIG. 9. Northern blot analysis. Total RNA was isolated from the tissues indicated from mice (A,B,C) and hamsters (D). The numerical data shown with each figure represents the fold increase (+) or decrease (−) of expression relative to corresponding vehicle-treated controls. (E) HepG2 cells were incubated in culture media with or without cycloheximide (cyclohex). For the Northern blot analysis from cycloheximide-treated HepG2 cells, tissue cultures were incubated in cell culture media with 10% lipid-deficient serum with or without 50 μg/mL cycloheximide. T0314407 was added after 30 min of cycloheximide treatment, cells were harvested 18 h later, and total RNA was extracted as described.

LXRα = target: T1, LXRα (Homo sapiens, UniProt Q13133); conditions: SPA
T1 sequence (Q13133 1-447): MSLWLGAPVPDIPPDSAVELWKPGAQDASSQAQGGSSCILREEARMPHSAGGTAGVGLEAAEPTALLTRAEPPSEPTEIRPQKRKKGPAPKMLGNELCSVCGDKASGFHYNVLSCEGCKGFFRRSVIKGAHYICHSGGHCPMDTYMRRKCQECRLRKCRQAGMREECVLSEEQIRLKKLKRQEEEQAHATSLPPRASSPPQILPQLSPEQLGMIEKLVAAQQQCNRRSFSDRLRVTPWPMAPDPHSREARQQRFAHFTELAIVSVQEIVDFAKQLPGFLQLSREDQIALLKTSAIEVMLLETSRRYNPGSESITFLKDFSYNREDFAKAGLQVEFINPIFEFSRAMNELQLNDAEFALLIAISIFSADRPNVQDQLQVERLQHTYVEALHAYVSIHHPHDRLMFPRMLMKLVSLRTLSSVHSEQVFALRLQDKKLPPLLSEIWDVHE

[2] = target: T2, LXRα ligand-binding domain (Homo sapiens, UniProt Q13133); experiment: biochemical
T2 sequence (Q13133 209-447 limits assumed): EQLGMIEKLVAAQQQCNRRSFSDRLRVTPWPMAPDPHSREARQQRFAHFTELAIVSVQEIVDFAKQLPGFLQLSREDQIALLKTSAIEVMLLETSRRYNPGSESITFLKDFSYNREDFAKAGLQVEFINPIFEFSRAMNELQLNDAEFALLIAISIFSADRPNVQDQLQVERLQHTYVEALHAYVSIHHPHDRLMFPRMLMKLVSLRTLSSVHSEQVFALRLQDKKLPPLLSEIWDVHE

[3] = system: HepG2, 293, and CaCO2 cells; experiment: Northern blot analysis of three cell lines treated with oxysterols in presence of cyclohexamide; format: cell-based; conditions: 30 μM, 50 μg/ml cyclohexamide, 18 hours
Experimental: To ascertain whether or not the 24,25-epoxycholesterol-mediated activation of SREBP-1 expression is cell-specific, three cell lines were tested. HepG2, 293, and CaCO2 cells were treated with either DMSO, 30 μM of 24,25-epoxycholesterol, 30 μM of 22(R)-hydroxycholesterol, or 30 μM 22(S)-hydroxycholesterol in the presence of 50 μg/ml cyclohexamide in DMEM F12 media supplemented with 10% lipid-free serum for 18 hours.
Total RNA was then prepared using the Trizol method. Electrophoresis and Northern blot analysis were performed using the NorthernMax™ system (Ambion). Ribonucleotide probes were used to identify RNA transcripts.

HepG2 cells [4] = experiment: Northern blot analysis of HepG2 cells treated with LXRα ligand, with or without cyclohexamide; format: cell-based
Experimental: HepG2 cells were treated with 24,25-epoxycholesterol in the presence or absence of 50 μg/ml cyclohexamide in DMEM F12 media supplemented with 10% lipid-free serum for 18 hours.
Total RNA was then prepared using the TRIzol® method (Chomczynski and Saachi (1987) Anal. Biochem. 162:156). Electrophoresis and Northern blot analysis were performed using the NorthernMax™ system (Ambion). Ribonucleotide probes were used to identify the RNA transcripts.

[5] = HepG2, presence and absence of 50 μg/ml cyclohexamide, 18 hours

| Structure (SMILES) | agonist-mediated increase in levels of FAS mRNA (HepG2 cells [1]) | induction of SREBP-1 gene expression (HepG2 cells [1]) | competition with binding of radiolabeled T0314407 to LXRα (LXRα) | EC50 [2] | expression of GAPDH [3] | expression of SREBP-2 [3] | SREBP-1 expression ([3]; all three cell lines) | expression of SREBP-2 (HepG2 cells [4]; HepG2, 18 hours) | expression of negative control GAPDH (HepG2 cells [4]; HepG2, 18 hours) | expression of SREBP-1 mRNA (HepG2 cells [4]; [5]) | expression of fatty acid synthase (HepG2 cells [4]; [5]) |
| --- | --- | --- | --- | --- | --- | --- | --- | --- | --- | --- | --- |
| CN(c1ccc(C(O)(C(F)(F)F)C(F)(F)F)cc1)S(=O)(=O)c1ccccc1 [T0314407, N-methyl-N-[4-(2,2,2-trifluoro-1-hydroxy-1-trifluoromethyl-ethyl)-phenyl]-benzenesulfonamide] | arrested | persisted | – | – | – | – | – | – | – | – | – |
| C[C@H](CC[C@@H]1OC1(C)C)[C@H]1CC[C@H]2[C@@H]3CC=C4C[C@@H](O)CC[C@]4(C)[C@H]3CC[C@]12C [24,25-epoxycholesterol, 24(S),25-epoxycholesterol] | – | – | competed | 0.3 µM | not significantly enhanced | not significantly enhanced | activates | not affected | not affected | stimulated; also recorded: activates | stimulated |
